Test results as given in ChEMBL document CHEMBL1201862, “PubChem BioAssay data set” (2004).
Calls of active or inactive are those of the source.

What was measured:
[1] = molecular target: T1, DNA repair protein RAD52 homolog (Homo sapiens, UniProt P43351); format: functional, biochemical
T1 sequence (P43351 whole entry): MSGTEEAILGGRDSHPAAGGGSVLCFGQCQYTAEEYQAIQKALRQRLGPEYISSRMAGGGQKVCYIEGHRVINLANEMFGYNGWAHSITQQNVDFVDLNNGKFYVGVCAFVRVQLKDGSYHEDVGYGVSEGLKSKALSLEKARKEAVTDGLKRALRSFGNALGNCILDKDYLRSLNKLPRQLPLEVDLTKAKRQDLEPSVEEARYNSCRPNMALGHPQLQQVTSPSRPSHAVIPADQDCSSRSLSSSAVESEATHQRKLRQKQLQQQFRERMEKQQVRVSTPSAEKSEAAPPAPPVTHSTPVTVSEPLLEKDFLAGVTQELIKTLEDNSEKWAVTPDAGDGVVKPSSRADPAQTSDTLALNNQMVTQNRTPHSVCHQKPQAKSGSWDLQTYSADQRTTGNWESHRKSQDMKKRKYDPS

[2] = molecular target: Latent membrane protein 1 (Human herpesvirus 4 (strain B95-8), UniProt P03230); experiment: LMP1 TES1 pathway selectivity over dsRED control – imaging, HEK293T, dual-color eGFP/dsRED, cherry-picks, selectivity assay for LMP1 NF-kB inhibitor project, dose response (AID 588398); format: functional, cell-based
Latent membrane protein 1, sequence (P03230 whole entry): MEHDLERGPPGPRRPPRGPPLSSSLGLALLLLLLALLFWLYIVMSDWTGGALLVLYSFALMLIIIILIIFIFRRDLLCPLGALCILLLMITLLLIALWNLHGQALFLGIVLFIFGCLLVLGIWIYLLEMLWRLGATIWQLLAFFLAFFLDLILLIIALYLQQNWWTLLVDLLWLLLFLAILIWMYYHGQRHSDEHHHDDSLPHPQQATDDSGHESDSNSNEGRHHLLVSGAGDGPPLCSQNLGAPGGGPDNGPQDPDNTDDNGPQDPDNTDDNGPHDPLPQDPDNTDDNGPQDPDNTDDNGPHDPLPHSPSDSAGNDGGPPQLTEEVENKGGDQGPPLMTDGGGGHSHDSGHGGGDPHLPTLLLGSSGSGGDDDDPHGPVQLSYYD

DNA topoisomerase = DNA topoisomerase (Yersinia pestis, UniProt A0A2S9PM60); experiment: Yersinia topoisomerase I cleavage product accumulation – biochemical, cherry-pick, dose response (AID 588525)
DNA topoisomerase, sequence (A0A2S9PM60 whole entry): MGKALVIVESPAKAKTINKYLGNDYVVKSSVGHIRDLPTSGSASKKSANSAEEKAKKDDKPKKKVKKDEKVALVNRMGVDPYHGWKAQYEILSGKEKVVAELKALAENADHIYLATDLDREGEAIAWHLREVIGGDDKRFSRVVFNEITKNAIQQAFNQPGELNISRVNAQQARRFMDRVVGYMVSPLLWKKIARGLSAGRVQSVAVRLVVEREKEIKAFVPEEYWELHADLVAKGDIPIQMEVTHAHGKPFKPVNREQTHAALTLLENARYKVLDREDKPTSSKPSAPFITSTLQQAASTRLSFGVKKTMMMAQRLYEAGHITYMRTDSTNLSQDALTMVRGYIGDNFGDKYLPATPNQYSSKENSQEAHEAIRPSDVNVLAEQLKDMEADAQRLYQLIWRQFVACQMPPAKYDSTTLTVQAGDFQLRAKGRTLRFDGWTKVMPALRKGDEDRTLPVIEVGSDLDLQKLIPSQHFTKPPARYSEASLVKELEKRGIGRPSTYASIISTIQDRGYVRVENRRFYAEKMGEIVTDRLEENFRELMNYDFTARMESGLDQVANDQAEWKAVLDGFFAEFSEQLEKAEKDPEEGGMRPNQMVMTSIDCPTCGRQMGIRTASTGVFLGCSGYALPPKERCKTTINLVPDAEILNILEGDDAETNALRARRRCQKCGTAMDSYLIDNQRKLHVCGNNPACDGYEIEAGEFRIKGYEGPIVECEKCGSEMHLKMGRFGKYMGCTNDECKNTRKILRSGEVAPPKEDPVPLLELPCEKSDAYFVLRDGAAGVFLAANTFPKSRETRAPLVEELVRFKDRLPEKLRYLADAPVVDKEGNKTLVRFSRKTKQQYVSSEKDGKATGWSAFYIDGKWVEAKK

INS1 = experiment: INS-1E survival protection against cytokine death – cell-based, luminescence, retest, dose response (AID 449756); format: functional; conditions: Rattus norvegicus;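 note: cell death triggered by IL-1 beta plus TNF-alpha plus IFN-gamma mixture; protective hits raise ATP signal compared with cytokine alone wells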
[3] = Luminescence Cell-Based Dose Retest to Confirm Inhibitors of Cancer Stem Cells. [Related pubchem assays (depositor defined):AID2717, AID2721]; format: functional; conditions: Homo sapiens
[4] = viability loss in HEK293 cells – cell-based, plate reader, cherry-picked samples, cytotoxicity control, dose response (AID 743446); format: functional
[5] = non-specific 3'UTR reporter inhibition in Clone20-Shn3RL – cell-based, Renilla luciferase, cherry-picked, counter-screen for Shn3 inhibitor project, dose response (AID 624133); format: functional
[6] = molecular target: Luciferin 4-monooxygenase (Photuris pensylvanica, UniProt Q27757); experiment: inhibition of Cell Titer Glo luciferase signal – biochemical, luminescence, cherry-picks, counter-screen for HSF-1 reporter inhibitor project, dose response (AID 588847)
Luciferin 4-monooxygenase, sequence (Q27757 whole entry): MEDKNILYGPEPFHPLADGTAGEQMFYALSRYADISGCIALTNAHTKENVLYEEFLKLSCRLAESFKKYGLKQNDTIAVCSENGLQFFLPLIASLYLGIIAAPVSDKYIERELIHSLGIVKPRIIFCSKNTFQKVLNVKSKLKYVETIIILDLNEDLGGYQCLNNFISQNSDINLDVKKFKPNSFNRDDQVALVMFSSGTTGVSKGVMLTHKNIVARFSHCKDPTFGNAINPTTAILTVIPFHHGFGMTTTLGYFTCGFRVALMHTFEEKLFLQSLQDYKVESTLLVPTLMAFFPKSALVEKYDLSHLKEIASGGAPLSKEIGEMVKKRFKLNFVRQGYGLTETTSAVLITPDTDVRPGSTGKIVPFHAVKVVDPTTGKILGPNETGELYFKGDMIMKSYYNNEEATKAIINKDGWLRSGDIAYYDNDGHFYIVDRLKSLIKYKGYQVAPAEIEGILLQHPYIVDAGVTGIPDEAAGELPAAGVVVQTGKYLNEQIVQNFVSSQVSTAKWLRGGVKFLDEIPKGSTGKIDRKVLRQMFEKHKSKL

Paired box protein Pax-8 = Paired box protein Pax-8 (Homo sapiens, UniProt Q06710); experiment: PAX8 transcriptional activity inhibition in RMG-I – RMG-I cells, luciferase, cherry-pick, dose response (AID 687027); format: functional, cell-based;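 note: luciferase reporter driven by Pax8 target thyroperoxidase promoter measured by SteadyGlo luminescence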
Paired box protein Pax-8, sequence (Q06710 whole entry): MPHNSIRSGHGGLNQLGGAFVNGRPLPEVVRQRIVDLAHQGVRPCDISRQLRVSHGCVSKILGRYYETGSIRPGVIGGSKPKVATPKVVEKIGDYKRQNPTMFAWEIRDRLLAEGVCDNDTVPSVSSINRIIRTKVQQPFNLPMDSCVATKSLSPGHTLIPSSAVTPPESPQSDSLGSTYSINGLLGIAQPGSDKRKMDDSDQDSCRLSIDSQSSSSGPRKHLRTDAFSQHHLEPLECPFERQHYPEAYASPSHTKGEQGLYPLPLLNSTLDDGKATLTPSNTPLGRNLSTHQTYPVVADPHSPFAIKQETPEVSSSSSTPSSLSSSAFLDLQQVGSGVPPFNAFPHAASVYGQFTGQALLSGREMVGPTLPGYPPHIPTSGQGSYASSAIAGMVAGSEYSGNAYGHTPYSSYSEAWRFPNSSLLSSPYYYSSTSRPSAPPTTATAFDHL

[7] = molecular target: T2, Heat shock factor protein 1 (Mus musculus, UniProt P38532); experiment: decrease of HSF1-responsive luciferase luminescence – cell-based, NIH3T3, dose retest, confirmation (AID 2382); format: functional;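 note: NIH3T3 fibroblasts with HSF1-driven luciferase reporter stressed by proteasome inhibitor MG132; luminescence from HSF1-driven luciferase expression after 8 hours of MG132 stress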
T2 sequence (P38532 whole entry): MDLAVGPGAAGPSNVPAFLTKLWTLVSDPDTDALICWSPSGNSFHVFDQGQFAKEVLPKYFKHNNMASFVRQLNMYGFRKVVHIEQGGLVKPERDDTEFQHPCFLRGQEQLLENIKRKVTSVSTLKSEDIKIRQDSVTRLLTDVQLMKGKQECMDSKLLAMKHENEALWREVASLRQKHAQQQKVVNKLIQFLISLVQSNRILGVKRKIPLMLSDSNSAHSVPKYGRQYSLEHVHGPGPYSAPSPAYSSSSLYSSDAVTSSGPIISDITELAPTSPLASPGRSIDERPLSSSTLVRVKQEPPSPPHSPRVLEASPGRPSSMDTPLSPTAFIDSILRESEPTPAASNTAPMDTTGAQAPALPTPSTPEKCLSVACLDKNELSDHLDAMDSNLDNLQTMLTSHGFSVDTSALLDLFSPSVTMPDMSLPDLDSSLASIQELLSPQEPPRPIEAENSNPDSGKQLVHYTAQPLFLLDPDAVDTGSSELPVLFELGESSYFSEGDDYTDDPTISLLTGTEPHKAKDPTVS

Jurkat = experiment: blockers of NF-kB activation in T cells – Jurkat, luciferase reporter, luminescence, B- and T-cell, dose response (AID 489004); format: functional, cell-based; conditions: Homo sapiens;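 note: NF-kB luciferase reporter Jurkat cells stimulated with PMA plus ionomycin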
[8] = blockade of melanocortin 4 receptor signaling – cell-based, plate reader, cherry pick, counter-screen for LGR2 antagonist project, dose response (AID 743444); format: functional;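 note: transfected HEK 293 cells stimulated with alpha-MSH peptide; potency of inhibitors of the alpha-MSH evoked signal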
Protein skinhead-1 = molecular target: T3, Protein skinhead-1 (Caenorhabditis elegans, UniProt P34707); format: functional
T3 sequence (P34707 whole entry): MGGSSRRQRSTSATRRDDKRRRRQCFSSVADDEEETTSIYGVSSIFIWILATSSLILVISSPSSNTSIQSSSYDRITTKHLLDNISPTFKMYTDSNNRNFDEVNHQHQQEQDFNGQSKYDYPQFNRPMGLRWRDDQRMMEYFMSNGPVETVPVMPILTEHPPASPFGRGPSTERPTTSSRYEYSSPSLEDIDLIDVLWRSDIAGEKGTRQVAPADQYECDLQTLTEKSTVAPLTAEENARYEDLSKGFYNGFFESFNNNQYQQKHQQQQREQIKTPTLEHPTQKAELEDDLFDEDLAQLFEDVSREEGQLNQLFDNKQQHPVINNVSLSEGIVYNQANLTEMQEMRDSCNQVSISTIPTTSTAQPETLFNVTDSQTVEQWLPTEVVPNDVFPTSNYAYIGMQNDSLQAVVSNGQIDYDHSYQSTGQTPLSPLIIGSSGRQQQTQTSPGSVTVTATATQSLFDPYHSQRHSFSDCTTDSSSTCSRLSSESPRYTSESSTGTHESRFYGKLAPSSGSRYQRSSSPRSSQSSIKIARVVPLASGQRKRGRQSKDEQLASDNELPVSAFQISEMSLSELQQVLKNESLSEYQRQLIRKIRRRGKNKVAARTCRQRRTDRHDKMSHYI

[9] = reduction of Shn3 3'UTR-driven luciferase in osteoblasts – cell-based, Clone20 osteoblasts, firefly luciferase, cherry-picked, dose response (AID 624132); format: functional;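 note: firefly luciferase luminescence from reporter carrying the Shn3 3'UTR in osteoblasts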
[10] = HEK-293T viability loss, compound-treated – cell-based, uHTS hits, cytotoxicity control for B/T-cell NF-kB inhibitor project, dose response (AID 489019); format: functional;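 note: IC50 reflects cytotoxicity as loss of cell viability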
[11] = loss of viability in HepG2 cells – cell-based, CellTiter-Glo, cherry-picked, cytotoxicity control for Shn3 inhibitor project, dose response (AID 624134); format: functional
[12] = blockers of bursicon-stimulated LGR2 cAMP reporter – cell-based, HEK293, CRE-luciferase reporter, cherry pick, set 2, dose response (AID 743343); format: functional;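 note: transfected cells were stimulated with diluted bursicon conditioned medium after compound addition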
[13] = toxicity toward HepG2 liver cells – cell-based, plate reader, cherry-pick, antagonist series, cytotoxicity control, dose response (AID 743416); format: functional

With `CC1(C)N=C(N)N=C(N)N1c1ccc(CCCCc2ccccc2)cc1` as the molecule, how does the AC50 [1] read?
Its AC50 is 11.2 µM (active).

And the AC50 [2]?
The AC50 was 28.9 µM (active).

Which results are given for `O=C(NCCN(CCNC(=O)c1nc[nH]c1C(=O)Nc1ccc(Cl)cc1)CCNC(=O)c1nc[nH]c1C(=O)Nc1ccc(Cl)cc1)c1nc[nH]c1C(=O)Nc1ccc(Cl)cc1`?
AC50 (DNA topoisomerase): 6.39 µM (active); AC50 (INS1): 7.12 µM (active); AC50 [3]: 1.67 µM (active)

What does the source list for `CN(C(=O)OC(C)(C)C)c1ccc(-c2nc3ccccc3s2)cc1`?
AC50 [4]: 46.5 µM (active); AC50 [5]: 7.35 µM (active); AC50 [6]: 1.42 µM (active); AC50 (Paired box protein Pax-8): 379 nM (active); EC50 [7]: < 160 nM (active); IC50 (Jurkat): < 160 nM (active); AC50 [8]: < 68 nM (active); IC50 (Protein skinhead-1): > 100 µM (inactive); AC50 [9]: < 260 nM (active); IC50 [10]: > 80 µM (inactive); AC50 [11]: > 70 µM (inactive); AC50 [12]: < 68 nM (active); AC50 [13]: > 52 µM (inactive)
